The subject of series [1] is RAW 264.7 macrophage line cells. As to the kind of experiment: NO production by RAW 264.7 macrophage line cells stimulated with LPS (Greiss test). Format: cell-based. As to the method:
Upon completion of incubation, the culture medium in all wells of the plate was replaced with 0.25 ml of fresh medium. […] Polymixin B (Calbiochem) (PMB) in the same concentrations was used as the positive control of the inhibition of the LPS effect. The prepared mixture was then added at 0.25 ml increments to the wells of the culture plate at least in two parallel experiments. A mixture of LPS and the culture medium was added to the control wells. The cells were cultivated for 24 hrs. in a CO2 incubator. NO production was measured based on the total nitrite level in the culture medium in the Greiss test by using a commercial reagent (Sigma) according to the manufacturer's specifications.

For the next series, the system named is thymus cells. The series can be described thus: Spontaneous proliferation of thymus cells (3H-thymidin capture). Format: cell-based, murine. To be noted: 72 hrs.
In a further series the test system is spleen cells. The series can be described thus: Spontaneous proliferation of spleen cells (3H-thymidin capture). Type of series: cell-based, murine. To be noted: for spontaneous proliferation of spleen cells (captured 3H-thymidin): 72 hrs.
Another series deals with red blood cells. Format: cell-based. How it is done: The mixture was then diluted with a phosphate (PBS) buffer (0.015 M Na2HPO4, 0.15 M NaCl, pH 7.4). Samples of peptides in specific concentrations in PBS were placed in wells of a 96-well plate, and a red cell suspension in PBS was added to the samples. The red cell concentration was 1%. PBS was used as the negative control (no hemolysis). The positive control (100% hemolysis) −0.1% triton X-100 in PBS. The plates were incubated for three hours at 37° C. under 5% CO2 and centrifuged. The supernatant was transferred to a clean plate. The intensity of the hemoglobin release from the destroyed red blood cells was determined on a tablet spectrophotometer “Victor-2” (Finland) at λ-450 nm. […] All measurements were made thrice.

The test system of series [2] is spleen cells stimulated with LPS. Format: cell-based, murine.
Series [3] has as its system type 2 herpes simplex virus, strain G (ATCC VR-734, USA). The series can be described thus: Protective activity in lethal herpes infection caused in mice by vaginal infection. Type of series: in vivo.
Setting [4] is: stimulated with 0.04 ml of LPS, peptide 0.4 μg/ml.
[5] abbreviates: stimulated with 0.04 ml of LPS, peptide 2 μg/ml.
The mark [6] stands for this setting: stimulated with 0.04 ml of LPS, peptide 10 μg/ml.
Setting [7] is: stimulated with 0.2 ml of LPS, peptide 0.4 μg/ml.
The mark [8] stands for this setting: stimulated with 0.2 ml of LPS, peptide 2 μg/ml.
Setting [9] is: stimulated with 0.2 ml of LPS, peptide 10 μg/ml.
Setting [10] is: mice, n = 15, applied once a day on days 1-5 post infection, followed 18 days.

Where a SMILES comes first, the peptide text is derived from it. [ ]: non-standard residue; d: D form. Phe(2-Me) = Cc1ccccc1C[C@H](N)C(=O)O

With Polymixin B [PMB], the NO production inhibition came to 44% in series [1] (setting [4]); 85% in series [1] (setting [5]); 94% in series [1] (setting [6]); 11% in series [1] (setting [7]); 62% in series [1] (setting [8]); 98% in series [1] (setting [9]). In addition, the “spontaneous proliferation of thymus cells (captured 3H-thymidin)” value in the series with thymus cells (peptide 0.08 μg/ml) was determined as 255 ± 68 imp/min; with thymus cells (peptide 0.4 μg/ml), 197 ± 10 imp/min; with thymus cells (peptide 2 μg/ml), 197 ± 12 imp/min; in the series with thymus cells (peptide 10 μg/ml), 201 ± 66 imp/min. Moreover, the “spontaneous proliferation of spleen cells (captured 3H-thymidin)” value in the series on spleen cells (peptide 0.08 μg/ml) came to 1488 ± 497 imp/min; in the series with spleen cells (peptide 0.4 μg/ml) it was 1548 ± 140 imp/min; with spleen cells (peptide 2 μg/ml), 2051 ± 167 imp/min; in the series with spleen cells (peptide 10 μg/ml) it was 2051 ± 456 imp/min.
Turning to `CC[C@H](C)[C@H](N)C(=O)N[C@@H](CC(C)C)C(=O)N1CCC[C@H]1C(=O)N[C@H](Cc1ccccc1)C(=O)N[C@@H](CCCCN)C(=O)N[C@H](Cc1ccccc1)C(=O)N1CCC[C@H]1C(=O)N[C@H](Cc1ccccc1)C(=O)N[C@H](Cc1ccccc1)C(=O)N1CCC[C@H]1C(=O)N[C@H](Cc1ccccc1)C(=O)N[C@@H](CCCNC(=N)N)C(=O)N[C@@H](CCCNC(=N)N)C(N)=O` [Peptide 6, H-Ile-Leu-Pro-D-Phe-Lys-D-Phe-Pro-D-Phe-D-Phe-Pro-D-Phe-Arg-Arg-NH2] (H-ILP[dF]K[dF]P[dF][dF]P[dF]RR-NH2), in series [1] (10-0.4 μg/ml doses), the “effect on NO production stimulated by LPS (in words)” value is “inhibited the NO production”. Besides, the NO production inhibition worked out at 0% in series [1] (setting [4]); 1% in series [1] (setting [5]); 8% in series [1] (setting [6]); 1% in series [1] (setting [7]); 10% in series [1] (setting [8]); 7% in series [1] (setting [9]). Besides, in the series with red blood cells, the “dose at which hemolysis was not induced” value is recorded as “exceeding 200 μg/ml”. In addition, the “spontaneous proliferation of thymus cells (captured 3H-thymidin)” value in the series with thymus cells (peptide 0.08 μg/ml) is 306 ± 103 imp/min; in the series on thymus cells (peptide 0.4 μg/ml), 246 ± 48 imp/min; with thymus cells (peptide 2 μg/ml) it was 298 ± 63 imp/min; with thymus cells (peptide 10 μg/ml), 736 ± 161 imp/min. The “effect on spontaneous proliferation of splenocytes (in words)” value in the series on spleen cells (2-10 μg/ml dose range) is listed as “statistically significant enhancement of the spontaneous proliferation of splenocytes”. Further, the “spontaneous proliferation of spleen cells (captured 3H-thymidin)” value in the series on spleen cells (peptide 0.08 μg/ml) was 1530 ± 510 imp/min; in the series on spleen cells (peptide 0.4 μg/ml), 1615 ± 248 imp/min; in the series with spleen cells (peptide 2 μg/ml) it was 1854 ± 236 imp/min; with spleen cells (peptide 10 μg/ml), 3279 ± 177 imp/min. The “effect on splenocyte proliferation stimulated with lipopolysaccharide (in words)” value in series [2] was “inhibited the LPS effect”.
In the case of `CC[C@H](C)[C@H](N)C(=O)N[C@@H](CC(C)C)C(=O)N1CCC[C@H]1C(=O)N[C@@H](Cc1ccccc1C)C(=O)N[C@@H](CCCCN)C(=O)N[C@@H](Cc1ccccc1C)C(=O)N1CCC[C@H]1C(=O)N[C@@H](Cc1ccccc1C)C(=O)N[C@@H](Cc1ccccc1C)C(=O)N1CCC[C@H]1C(=O)N[C@@H](Cc1ccccc1C)C(=O)N[C@@H](CCCNC(=N)N)C(=O)N[C@@H](CCCNC(=N)N)C(N)=O` [Peptide 11, H-Ile-Leu-Pro-(2-Me)Phe-Lys-(2-Me)Phe-Pro-(2-Me)Phe-(2-Me)Phe-Pro-(2-Me) Phe-Arg-Arg-NH2] (H-ILP[Phe(2-Me)]K[Phe(2-Me)]P[Phe(2-Me)][Phe(2-Me)]P[Phe(2-Me)]RR-NH2), the “dose at which hemolysis was not induced” value with red blood cells is reported as “exceeding 200 μg/ml”.
Take `Nc1nc2c(ncn2COCCO)c(=O)[nH]1` [Acyclovir]: in series [3] (setting [10]), the “Number of Dead animals” value was determined as 4 and the “Number of Survived animals” value is recorded as 11. The molecule further registered a Mortality in series [3] (mice, n = 15, followed 18 days) of 26.7%. In series [3] (versus virus control group), the “Increase in ALS” value came out at 2.5.

Source of the values: patent US11059860B2, “Biocidal peptide and preparation based thereon” (“VERTA RESEARCH-PRODUCTION COMPANY” LTD, priority 2017, dated 2021).
